Data reported in patent EP2970215B1, “PYRROLIDINE DERIVATIVES, PHARMACEUTICAL COMPOSITIONS CONTAINING THEM, AND THEIR USE IN THERAPY” (AbbVie Deutschland GmbH & Co. KG, priority 2013, dated 2014).

These compounds were tested against T1, human GlyT1c transporter (Homo sapiens, UniProt P48067) (assay: Radioligand binding assay using recombinant CHO cell membranes expressing human GlyT1). Details: radioligand binding to human GlyT1c transporter-expressing membranes.
T1 construct: expressed in transfected cells; host or cells: CHO cells (recombinant; line hGlyT1c_5_CHO is named for the uptake assay)
T1 sequence (P48067 1-706): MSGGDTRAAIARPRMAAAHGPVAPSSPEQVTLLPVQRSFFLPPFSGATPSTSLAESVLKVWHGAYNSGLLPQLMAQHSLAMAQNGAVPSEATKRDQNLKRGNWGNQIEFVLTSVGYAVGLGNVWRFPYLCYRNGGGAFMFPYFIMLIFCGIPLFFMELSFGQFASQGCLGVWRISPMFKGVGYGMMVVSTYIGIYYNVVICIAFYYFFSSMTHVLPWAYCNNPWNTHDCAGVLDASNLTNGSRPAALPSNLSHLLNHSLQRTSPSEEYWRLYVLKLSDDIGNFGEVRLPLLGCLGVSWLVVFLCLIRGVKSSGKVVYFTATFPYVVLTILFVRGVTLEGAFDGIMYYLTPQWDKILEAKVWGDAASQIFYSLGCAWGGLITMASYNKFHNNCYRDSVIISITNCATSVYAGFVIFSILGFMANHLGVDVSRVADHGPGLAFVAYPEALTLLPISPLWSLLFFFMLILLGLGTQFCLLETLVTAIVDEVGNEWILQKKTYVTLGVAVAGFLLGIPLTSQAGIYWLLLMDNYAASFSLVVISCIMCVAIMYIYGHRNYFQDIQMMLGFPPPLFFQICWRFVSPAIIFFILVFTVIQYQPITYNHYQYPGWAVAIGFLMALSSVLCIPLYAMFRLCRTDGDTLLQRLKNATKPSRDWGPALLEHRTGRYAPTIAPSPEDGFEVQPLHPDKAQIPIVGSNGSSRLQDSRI
From the text: 2. Radioligand binding assays using recombinant CHO cell membranes expressing human GlyT1: […]
`CCCCN(CCCC)C(=O)[C@@H]1CN(S(=O)(=O)c2cn(C)cn2)C[C@H]1c1ccc(F)cc1` (relative stereo) [Example 636, Trans-N,N-dibutyl-4-(4-fluorophenyl)-1-[(1-methyl-1H-imidazol-4-yl)sulfonyl]pyrrolidine-3-carboxamide] was tested, and the Ki was at most 1 µM. `Cn1cnc(S(=O)(=O)N2C[C@@H](C(=O)NCc3ccc(F)c(Cl)c3)[C@H](c3ccc(F)cc3)C2)c1` (relative stereo) [Example 642, Trans-N-(3-chloro-4-fluorobenzyl)-4-(4-fluorophenyl)-1-[(1-methyl-1H-imidazol-4-yl)sulfonyl]pyrrolidine-3-carboxamide] showed a Ki of at most 0.01 µM. `CC(C)CCCCCNC(=O)[C@@H]1CN(S(=O)(=O)c2cn(C)cn2)C[C@H]1c1ccc(F)cc1` (relative stereo) [Example 643, Trans-4-(4-fluorophenyl)-N-(6-methylheptyl)-1-[(1-methyl-1H-imidazol-4-yl)sulfonyl]pyrrolidine-3-carboxamide] gave a Ki of at most 10 µM. `Cn1cnc(S(=O)(=O)N2C[C@@H](C(=O)NCc3cccc(OC(F)(F)F)c3)[C@H](c3ccc(F)cc3)C2)c1` (relative stereo) [Example 661, Trans-4-(4-fluorophenyl)-1-[(1-methyl-1H-imidazol-4-yl)sulfonyl]-N-[3-(trifluoromethoxy)benzyl]pyrrolidine-3-carboxamide] showed a Ki of at most 1 µM. Compound `Cn1cnc(S(=O)(=O)N2C[C@@H](NCc3ccc(C(F)(F)F)cc3Cl)[C@H](C3CCCCO3)C2)c1` (relative stereo) [Example 680, Trans-N-[2-chloro-4-(trifluoromethyl)benzyl]-1-[(1-methyl-1H-imidazol-4-yl)sulfonyl]-4-(tetrahydro-2H-pyran-2-yl)pyrrolidin-3-amine] has a Ki of at most 0.1 µM. Work on `Cn1cnc(S(=O)(=O)N2C[C@@H](Nc3cccc(C(F)(F)F)c3)[C@H](C3CCCCO3)C2)c1` (relative stereo) [Example 681, Trans-1-[(1-methyl-1H-imidazol-4-yl)sulfonyl]-4-(tetrahydro-2H-pyran-2-yl)-N-[3-(trifluoromethyl)phenyl]pyrrolidin-3-amine] yielded a Ki of at most 0.01 µM. `Cn1cnc(S(=O)(=O)N2C[C@@H](Nc3cc(C(F)(F)F)ccn3)[C@H](C3CCCCO3)C2)c1` (relative stereo) [Example 682, N-{Trans-1-[(1-methyl-1H-imidazol-4-yl)sulfonyl]-4-[tetrahydro-2H-pyran-2-yl]pyrrolidin-3-yl}-4-(trifluoromethyl)pyridin-2-amine] showed a Ki of at most 0.1 µM. For `Cn1cnc(S(=O)(=O)N2C[C@@H](Nc3cc(C(F)(F)F)ncn3)[C@H](C3CCCCO3)C2)c1` (relative stereo) [Example 687, N-[Trans-1-[(1-methyl-1H-imidazol-4-yl)sulfonyl]-4-(tetrahydro-2H-pyran-2-yl)pyrrolidin-3-yl]-6-(trifluoromethyl)pyrimidin-4-amine], the Ki was at most 0.1 µM. `CCCNCCO[C@@H]1CN(S(=O)(=O)c2cn(C)cn2)C[C@H]1c1ccc(F)cc1` (relative stereo) [Example 688, N-[2-({Trans-4-(4-fluorophenyl)-1-[(1-methyl-1H-imidazol-4-yl)sulfonyl]pyrrolidin-3-yl}oxy)ethyl]propan-1-amine] was tested, and the Ki was at most 1 µM. `CCCNC(=O)CO[C@@H]1CN(S(=O)(=O)c2cn(C)cn2)C[C@H]1c1ccc(F)cc1` (relative stereo) [Example 689, 2-({Trans-4-(4-fluorophenyl)-1-[(1-methyl-1H-imidazol-4-yl)sulfonyl]pyrrolidin-3-yl}oxy)-N-propylacetamide] gave a Ki of at most 1 µM. With `Cn1cnc(S(=O)(=O)N2C[C@@H](Nc3ccc(F)c(F)c3)[C@H](c3ncco3)C2)c1` (relative stereo) [Example 709, Trans-N-[3,4-difluorophenyl]-1-[(1-methyl-1H-imidazol-4-yl)sulfonyl]-4-(1,3-oxazol-2-yl)pyrrolidin-3-amine] the Ki was at most 10 µM. With `Cn1cnc(S(=O)(=O)N2C[C@@H](OCc3cccc(F)c3)[C@H](c3ccc(F)cc3)C2)c1` (relative stereo) [Example 712, 4-{[trans-3-[(3-fluorobenzyl)oxy]-4-(4-fluorophenyl)pyrrolidin-1-yl]sulfonyl}-1-methyl-1H-imidazole] the Ki was at most 1 µM. In the case of `Cn1cnc(S(=O)(=O)N2C[C@@H](OCc3ccc(S(C)(=O)=O)cc3)[C@H](c3ccc(F)cc3)C2)c1` (relative stereo) [Example 713, 4-{[trans-3-(4-fluorophenyl)-4-{[4-(methylsulfonyl)benzyl]oxy}pyrrolidin-1-yl]sulfonyl}-1-methyl-1H-imidazole], the Ki is reported as over 10 µM. `Cn1cnc(S(=O)(=O)N2C[C@@H](OCc3cccc(S(C)(=O)=O)c3)[C@H](c3ccc(F)cc3)C2)c1` (relative stereo) [Example 714, 4-{[trans-3-(4-fluorophenyl)-4-{[3-(methylsulfonyl)benzyl]oxy}pyrrolidin-1-yl]sulfonyl}-1-methyl-1H-imidazole] gave a Ki of at most 10 µM. With `CCCCCCN[C@@H]1CN(S(=O)(=O)c2cn(C)cn2)C[C@H]1c1ncccc1F` (relative stereo) [Example 762, Trans-4-(3-fluoropyridin-2-yl)-N-hexyl-1-[(1-methyl-1H-imidazol-4-yl)sulfonyl]pyrrolidin-3-amine] the Ki was at most 0.1 µM. Work on `CCCCCCN(CCCCCC)[C@@H]1CN(S(=O)(=O)c2cn(C)cn2)C[C@H]1c1ncccc1F` (relative stereo) [Example 763, Trans-4-(3-fluoropyridin-2-yl)-N,N-dihexyl-1-[(1-methyl-1H-imidazol-4-yl)sulfonyl]pyrrolidin-3-amine] yielded a Ki of at most 1 µM. With `CCCCCN(CCCCC)[C@@H]1CN(S(=O)(=O)c2cn(C)cn2)C[C@H]1c1ncccc1F` (relative stereo) [Example 764, Trans-4-(3-fluoropyridin-2-yl)-1-[(1-methyl-1H-imidazol-4-yl)sulfonyl]-N,N-dipentylpyrrolidin-3-amine] the Ki was at most 1 µM. Work on `CCCCCN[C@@H]1CN(S(=O)(=O)c2cn(C)cn2)C[C@H]1c1ncccc1F` (relative stereo) [Example 765, Trans-4-(3-fluoropyridin-2-yl)-1-[(1-methyl-1H-imidazol-4-yl)sulfonyl]-N-pentylpyrrolidin-3-amine] yielded a Ki of at most 1 µM. `Cn1cnc(S(=O)(=O)N2C[C@@H](Nc3ccc(F)c(C(F)(F)F)c3)[C@H](c3ncccc3F)C2)c1` (relative stereo) [Example 767, Trans-4-(3-fluoropyridin-2-yl)-N-[4-fluoro-3-(trifluoromethyl)phenyl]-1-[(1-methyl-1H-imidazol-4-yl)sulfonyl]pyrrolidin-3-amine] gave a Ki of at most 0.1 µM. For `Cn1cnc(S(=O)(=O)N2C[C@@H](Nc3ccc(F)c(OC(F)(F)F)c3)[C@H](c3ncccc3F)C2)c1` (relative stereo) [Example 768, Trans-4-(3-fluoropyridin-2-yl)-N-[4-fluoro-3-(trifluoromethoxy)phenyl]-1-[(1-methyl-1H-imidazol-4-yl)sulfonyl]pyrrolidin-3-amine], the Ki was at most 0.1 µM. Compound `Cc1cc(N[C@@H]2CN(S(=O)(=O)c3cn(C)cn3)C[C@H]2c2ncccc2F)ncc1F` (relative stereo) [Example 769, 5-fluoro-N-{trans-4-(3-fluoropyridin-2-yl)-1-[(1-methyl-1H-imidazol-4-yl)sulfonyl]pyrrolidin-3-yl}-4-methylpyridin-2-amine] has a Ki of at most 1 µM.
